IC50 data for two compounds are collected here from ChEMBL document CHEMBL1133153, “Antitumour benzothiazoles. Part 10: the synthesis and antitumour activity of benzothiazole substituted quinol derivatives” (Bioorg Med Chem Lett, 2000).

Common to all, as to type: functional, cell-based
Assay [1] relates to HCT-116. In words: The compound was tested in vitro for its antitumor activity against human colon cancer cell line HCT116.
Assay [2] deals with MCF7. In words: The compound was tested in vitro for its antitumor activity against human breast cell line MCF-7.
The subject of assay [3] is MDA-MB-468. In words: The compound was tested in vitro for its antitumor activity against human breast cell line MDA-468.
For assay [4], the system named is HT-29. In words: The compound was tested in vitro for its antitumor activity against human colon cancer cell line HT-29.

In the case of `Oc1ccc(-c2nc3ccccc3s2)cc1`, the IC50 in assay [1] was over 100 µM; in assay [2], 53.4 µM; in assay [3], 0.14 µM; in assay [4], 83.7 µM.
Turning to `Oc1cccc(-c2nc3ccccc3s2)c1`, the IC50 is over 100 µM in assay [1], 51.8 µM in assay [2], 0.05 µM in assay [3] and 78.7 µM in assay [4].

One may read the IC50 as the point on the concentration scale where inhibition reaches its midpoint. A higher IC50 goes with weaker potency in that assay.
